Values quoted from earlier work as cited in patent publication US6475716B1, “Method for preserving mammalian organs” (Biobank Co., Ltd., priority 2001, dated 2002).

Tested on: cell membranes of the heart
Details: heart exposed to low temperature of 4° C. or ischemic injury

OC[C@H]1O[C@H](O[C@H]2O[C@H](CO)[C@@H](O)[C@H](O)[C@H]2O)[C@H](O)[C@@H](O)[C@@H]1O [trehalose]
protection of cell membranes of the heart: had the ability to protect cell membranes of the heart
